Common to all, as to assay type: in vivo
Assay [1] deals with “Momotaro” tomato. The assay can be described thus: Example 4 salt stress tolerance imparting test (tomato, tap water + NaCl). The conditions noted are these: tap water + NaCl 3510 ppm, leaf, 100 ppm, 2 weeks. The text has this:
NaCl concentration 3510 ppm (water potential by NaCl: […]) (4) Cultivation period: two weeks (5) Plant preparation: A 50-cell tray was filled with Kureha gardening soil manufactured by Kureha Corporation (fertilizer components: N:P:K=0.4:1.9:0.6 g/kg soil), and seeds of a “Momotaro” tomato were sowed, thinly covered with Kureha gardening soil, and sufficiently irrigated to allow the seeds to sprout. When the leaves in the 2-leaf stage fully unfolded, the soil on the tomato roots was carefully washed away with running water, and a test was performed. (6) The chemicals used and the concentration of a treatment solution were as in Example 1 (7) Amount of application: 10 ml/specimen for leaf spraying, 50 ml/specimen for fertigation Method of Salt Stress Tolerance Imparting Test […]

Assay [2] relates to “Momotaro” tomato. The assay can be described thus: Example 3 drying stress tolerance imparting test (tomato). The conditions noted are these: pF 2.3, leaf, 100 ppm once a week, 3 weeks. As for the experimental part:
Other cultivation conditions were as with the conditions of the drying stress test. Drying stress conditions: soil pF value: 2.3, 2.5, or 2.9, cultivation temperature: 23° C., relative humidity: 50%, illuminance: 5000 Lux (fluorescent light), light/dark cycle: 16 hours/8 hours (2) Cultivation period: 3 weeks (3) Soil: Kureha gardening soil manufactured by Kureha Corporation (fertilizer components: N:P:K=0.4:1.9:0.6 g/kg soil) (4) Plant preparation: A 50-cell tray was filled with Kureha gardening soil manufactured by Kureha Corporation (fertilizer components: N:P:K=0.4:1.9:0.6 g/kg soil), and seeds of a “Momotaro” tomato were sowed, thinly covered with Kureha gardening soil, and sufficiently watered to allow the seeds to sprout. When the leaves in the 2-leaf stage fully unfolded, the soil on the tomato roots was carefully washed away with running water, and a test was performed. (5) The chemicals used and the amount of a treatment solution applied were as in Example 1. (6) Amount of treatment solution applied: 10 ml/specimen for leaf spraying, 50 ml/specimen for fertigation Method of Drying Stress Tolerance Imparting Test Five tomato specimens as prepared above were planted in a 60-cm planter placed on a plant culture rack in an air-conditioned room. […] From immediately after planting the tomatoes, a treatment solution of Table 1 was sprayed onto the leaves or applied to the underground portions once a week. […] Five specimens (per planter) were prepared for each of the test plot and the control plots, plant bodies were collected 3 weeks after the beginning of the test such that the roots were not cut, the soil was washed away with running water, the fresh plant body-weights were measured, and a plant stress level and an extent of imparting plant stress tolerance were calculated according to Formula (ii) and (iii) above using the average of the weights.

The subject of assay [3] is Potato Variety: Toyoshiro. The assay is described as follows: Example 5 drying stress tolerance imparting test (potato variety Toyoshiro). As to conditions: pF 2.3, leaf, 100 ppm once a week, 3 weeks. As for the experimental part:
Other cultivation conditions were the same as the conditions of the drying stress test. Drying stress conditions: soil pF value: 2.3, 2.5, or 2.9, cultivation temperature: 23° C., relative humidity: 50%, illuminance: 5000 Lux (fluorescent light), light/dark cycle: 16 hours/8 hours (2) Cultivation Period: 3 weeks (3) Soil: Kureha gardening soil manufactured by Kureha Corporation (fertilizer components: N:P:K=0.4:1.9:0.6 g/kg soil) (4) The chemicals used and the amount of a treatment solution applied were the same as in Example 3. Method of Drying Stress Tolerance Imparting Test A planter (60 cm) was filled with Kureha gardening soil manufactured by Kureha Corporation (fertilizer components: N:P:K=0.4:1.9:0.6 g/kg soil) in a glass greenhouse, tubers of a “Thyoshiro” potato were cut in half: and 5 pieces thereof were planted in the planter, thinly covered with Kureha gardening soil, and sufficiently watered to allow the tubers to sprout. When the leaves in the 3-leaf stage fully unfolded, the Solarium tuberosu was relocated on a plant culture rack in an air-conditioned room, and a test was initiated. […] From immediately after the beginning of the test, a treatment solution of Table 1 was sprayed onto the leaves or applied to the underground portions once a week. […] Five specimens (per planter) were prepared for each of the test plot and the control plots, plant bodies were collected 3 weeks after the beginning of the test such that the roots were not cut, the soil was washed away with running water, the fresh plant body weights were measured, and a plant stress level and an extent of imparting plant stress tolerance were calculated according to Formula (ii) and (iii) above using the average of the weights.

Assay [4] has as its system “Momotaro” tomato. The assay is described as follows: Example 2 temperature stress tolerance imparting test (tomato). The conditions noted are these: 32° C., leaf, 100 ppm, 2 weeks. As for the experimental part: Other cultivation conditions were the same as the conditions of the temperature stress test. […] (2) Solution culture medium: […] Method of Temperature Stress Tolerance Imparting Test The temperature in a climatic chamber was controlled so as to be 10, 15, or 32° C. The environmental conditions were controlled so as to have an illuminance by a fluorescent light of 5000 Lux and a daily light-dark cycle of a 16-hour light period and a 8-hour dark period. In this test, a temperature of 23° C. at which the optimum growth was observed was regarded as a reference temperature (temperature stress-free test condition), and a stress was imposed by applying a temperature higher or lower than the reference temperature. A tomato as prepared above was planted in a 250 ml polyethylene bottle filled with the solution culture medium (½ Otsuka A formulation). A treatment solution as presented in Table 1 was sprayed onto the leaves or applied to the underground portion. […] Ten specimens were prepared for each of the test plot and the control plots, and a plant stress level and an extent of imparting plant stress tolerance were calculated according to Formula (ii) and (iii) above using as a fresh plant body weight the average of the fresh plant body weights of each specimen 2 weeks after the beginning of the test.

Assay [5] concerns “Momotaro” tomato. The assay can be described thus: Standard test: standard extent of imparting plant salt stress tolerance. The conditions noted are these: 100 ppm sprayed onto leaves 10 ml/specimen, NaCl 3510 ppm in tap water, fresh weight after 2 weeks vs salt-stressed untreated control plot 1. As for the experimental part:
Standard Test (I) Plant Preparation A 50-cell tray is filled with potting soil (fertilizer components: N:P:K=0.4:1.9:0.6 (g)/kg potting soil); and seeds of a “Momotaro” tomato (Takii Co., Ltd.) are sowed, thinly covered with potting soil, and sufficiently irrigated to allow the seeds to sprout. When the leaves in the 2-leaf stage are fully unfolded, the soil on the tomato roots is washed away with running water, and a test is performed. For the potting soil, Kureha gardening soil manufactured by Kureha Corporation may be used. (II) Test Condition Setting The environmental conditions are controlled such that the temperature is 23° C., the relative humidity is 50%, the illuminance is 5000 Lux, and the daily light-dark cycle includes a 16-hour light period and an 8-hour dark period. Such environmental conditions can be obtained by, for example, controlling the temperature in a room or a climate chamber where the temperature and the relative humidity can be controlled, and controlling illuminance by a fluorescent light or the like. […] (III) Treatment with Plant Stress Tolerance Imparting Composition […] A known surfactant or a like material that barely affects the plant may be used in the preparation of an aqueous dispersion. Test plot: An aqueous solution or an aqueous dispersion of a test compound (sugar derivative-type surfactant) (concentration: 100 ppm) is sprayed onto the leaves in an amount of 10 ml per tomato specimen. […] NaCl is added to a solution culture medium (creating a salt stress), but no test compound (plant stress tolerance imparting composition) is given to the tomato. Control plot 2: No NaCl is added to a solution culture medium (creating no salt stress), and no test compound (plant stress tolerance imparting composition) is given to the tomato. (IV) Calculation of Standard Extent of Imparting Plant Salt Stress Tolerance (%) […] The plant stress level (standard plant salt stress level) attained in the above-described standard test is about 130%. In this regard, the standard plant salt stress level can be calculated according to Formula (ii)′ below.

From patent US20110100079A1, “METHOD FOR IMPARTING STRESS TOLERANCE TO PLANT” (priority 2007, published 2011) come the findings set out here.

“Sucrose fatty acid ester (C18, HLB = 5) [Product of present invention 17]”: the “Extent of imparting plant stress tolerance” value in the assay on “Momotaro” tomato [1] is listed as 113%; in the assay on “Momotaro” tomato [2], 112%; in assay [3], 114%; with “Momotaro” tomato [4], 111%. Moreover, the “Standard extent of imparting plant salt stress tolerance” value with “Momotaro” tomato [5] is 113%.
